From patent publication US20210070748A1, “INHIBITORS OF BRUTONS TYROSINE KINASE” (Pharmacyclics LLC, priority 2015, published 2021)

target: T1, BTK-WT (Homo sapiens, UniProt Q06187); test: Btk in vitro inhibitory activity (one of Method A TR-FRET, Method B electrophoretic mobility shift, Method C radiometric filter binding); assay type: biochemical; details: D-compounds panel data; read-out: IC50 BTK-WT
T1 construct: purified from insect cells as a full-length construct containing an N-terminal 6X-His tag; His6 (N); made in house; host or cells: insect cells (baculovirus Sf21 in Method B)
T1 sequence (Q06187 whole entry): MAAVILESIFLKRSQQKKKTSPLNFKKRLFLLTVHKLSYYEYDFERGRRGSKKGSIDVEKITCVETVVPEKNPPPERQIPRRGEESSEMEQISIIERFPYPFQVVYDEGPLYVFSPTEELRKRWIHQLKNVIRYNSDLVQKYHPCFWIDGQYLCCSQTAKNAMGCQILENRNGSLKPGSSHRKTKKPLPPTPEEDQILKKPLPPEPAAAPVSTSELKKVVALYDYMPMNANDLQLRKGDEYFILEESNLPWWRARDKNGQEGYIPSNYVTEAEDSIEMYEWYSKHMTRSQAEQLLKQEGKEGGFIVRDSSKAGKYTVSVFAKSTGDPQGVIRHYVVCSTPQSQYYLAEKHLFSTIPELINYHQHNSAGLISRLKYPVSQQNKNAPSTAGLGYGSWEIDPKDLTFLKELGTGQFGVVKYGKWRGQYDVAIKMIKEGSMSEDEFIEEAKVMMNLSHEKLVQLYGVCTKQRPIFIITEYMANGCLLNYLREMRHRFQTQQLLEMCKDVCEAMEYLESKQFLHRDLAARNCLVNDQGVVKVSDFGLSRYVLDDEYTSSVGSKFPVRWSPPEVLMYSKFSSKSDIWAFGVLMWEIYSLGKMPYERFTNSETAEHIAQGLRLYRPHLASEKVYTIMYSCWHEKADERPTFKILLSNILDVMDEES

| Structure (SMILES) | IC50 [nM] |
| --- | --- |
| C[C@@H]1[C@H](NC(=O)c2ccc(OC3CC3)cc2)CCCN1c1cnc(C(N)=O)c(Nc2cnn(C)c2)n1 [Example D-219, 5-[(2R,3R)-3-(4-cyclopropoxybenzamido)-2-methylpiperidin-1-yl]-3-[(1-methyl-1H-pyrazol-4-yl)amino]pyrazine-2-carboxamide] | ≤ 10 |
| CC(C)c1ccc(S(=O)(=O)N[C@@H]2CCCN(c3cnc(C(N)=O)c(Nc4cnn(C)c4)n3)[C@@H]2C)cc1 [Example D-220, 3-[(1-methyl-1H-pyrazol-4-yl)amino]-5-[(2R,3R)-2-methyl-3-[4-(propan-2-yl)benzenesulfonamido]piperidin-1-yl]pyrazine-2-carboxamide] | 1000 to 10000 |
| C[C@@H]1[C@H](NC(=O)c2ccc(C3(C(F)(F)F)CC3)cc2)CCCN1c1cnc(C(N)=O)c(Nc2cnn(C)c2)n1 [Example D-221, 3-[(1-Methyl-1H-pyrazol-4-yl)amino]-5-[(2R,3R)-2-methyl-3-{4-[1-(trifluoromethyl)cyclopropyl]benzamido}piperidin-1-yl]pyrazine-2-carboxamide] | ≤ 10 |
| CC(C)c1ccc(C(=O)N[C@@H]2CCCN(c3cnc(C(N)=O)c(Nc4cnn(C)c4)n3)C2)cc1 [Example D-222, 3-[(1-Methyl-1H-pyrazol-4-yl)amino]-5-[(3R)-3-[4-(propan-2-yl)benzamido]piperidin-1-yl]pyrazine-2-carboxamide] | ≤ 10 |
| C[C@@H]1[C@H](NC(=O)c2ccc(C(C)(C)C)cc2F)CCCN1c1cnc(C(N)=O)c(Nc2cnn(C)c2)n1 [Example D-223, 5-[(2R,3R)-3-(4-tert-butyl-2-fluorobenzamido)-2-methylpiperidin-1-yl]-3-[(1-methyl-1H-pyrazol-4-yl)amino]pyrazine-2-carboxamide] | ≤ 10 |
| C[C@@H]1[C@H](NC(=O)c2ccc3c(c2)OCCO3)CCCN1c1cnc(C(N)=O)c(Nc2cnn(C)c2)n1 [Example D-224, 5-[(2R,3R)-3-(2,3-dihydro-1,4-benzodioxine-6-amido)-2-methylpiperidin-1-yl]-3-[(1-methyl-1H-pyrazol-4-yl)amino]pyrazine-2-carboxamide] | ≤ 10 |
| Cn1cc(Nc2nc(N3CCC[C@@H](n4ccc5cc(C6CC6)ncc5c4=O)C3)cnc2C(N)=O)cn1 [Example D-225, 5-[(3R)-3-(6-cyclopropyl-1-oxo-1,2-dihydro-2,7-naphthyridin-2-yl)piperidin-1-yl]-3-[(1-methyl-1H-pyrazol-4-yl)amino]pyrazine-2-carboxamide] | ≤ 10 |
| C[C@@H]1[C@H](NC(=O)c2ccc3scnc3c2)CCCN1c1cnc(C(N)=O)c(Nc2ccc(N3CCN(C)CC3)cc2)n1 [Example D-226, N-[(2R,3R)-1-(5-carbamoyl-6-{[4-(4-methylpiperazin-1-yl)phenyl]amino}pyrazin-2-yl)-2-methylpiperidin-3-yl]-1,3-benzothiazole-5-carboxamide] | ≤ 10 |
| C[C@@H]1[C@H](NC(=O)c2ccc(S(C)(=O)=O)cc2)CCCN1c1cnc(C(N)=O)c(Nc2ccc(N3CCN(C)CC3)cc2)n1 [Example D-227, 5-[(2R,3R)-3-(4-methanesulfonylbenzamido)-2-methylpiperidin-1-yl]-3-{[4-(4-methylpiperazin-1-yl)phenyl]amino}pyrazine-2-carboxamide] | ≤ 10 |
| C[C@@H]1[C@H](NC(=O)c2ccc(C3(C)COC3)cc2)CCCN1c1cnc(C(N)=O)c(Nc2cnn(C)c2)n1 [Example D-228, 3-[(1-methyl-1H-pyrazol-4-yl)amino]-5-[(2R,3R)-2-methyl-3-[4-(3-methyloxetan-3-yl)benzamido]piperidin-1-yl]pyrazine-2-carboxamide] | ≤ 10 |
| C[C@@H]1[C@H](NC(=O)c2ccc(C(C)(C)C)s2)CCCN1c1cnc(C(N)=O)c(Nc2cnn(C)c2)n1 [Example D-229, 5-[(2R,3R)-3-(5-tert-butylthiophene-2-amido)-2-methylpiperidin-1-yl]-3-[(1-methyl-1H-pyrazol-4-yl)amino]pyrazine-2-carboxamide] | ≤ 10 |
| C[C@@H]1[C@H](NC(=O)c2ccc(S(F)(F)(F)(F)F)cc2)CCCN1c1cnc(C(N)=O)c(Nc2cnn(C)c2)n1 [Example D-230, 3-[(1-methyl-1H-pyrazol-4-yl)amino]-5-[(2R,3R)-2-methyl-3-[4-(pentafluoro-λ^6-sulfanyl)benzamido]piperidin-1-yl]pyrazine-2-carboxamide] | ≤ 10 |
| COc1cc(C(=O)N[C@@H]2CCCN(c3cnc(C(N)=O)c(Nc4cnn(C)c4)n3)[C@@H]2C)ccc1C1CC1 [Example D-231, 5-[(2R,3R)-3-(4-cyclopropyl-3-methoxybenzamido)-2-methylpiperidin-1-yl]-3-[(1-methyl-1H-pyrazol-4-yl)amino]pyrazine-2-carboxamide] | ≤ 10 |
| Cc1ccc(C(=O)N[C@@H]2CCCN(c3cnc(C(N)=O)c(Nc4cnn(C)c4)n3)[C@@H]2C)cc1 [Example D-232, 3-[(1-methyl-1H-pyrazol-4-yl)amino]-5-[(2R,3R)-2-methyl-3-(4-methylbenzamido)piperidin-1-yl]pyrazine-2-carboxamide] | ≤ 10 |
| C[C@@H]1[C@H](NC(=O)c2ccc(SC(F)(F)F)cc2)CCCN1c1cnc(C(N)=O)c(Nc2ccc(N3CCN(C)CC3)cc2)n1 [Example D-233, 5-[(2R,3R)-2-methyl-3-{4-[(trifluoromethyl)sulfanyl]benzamido}piperidin-1-yl]-3-{[4-(4-methylpiperazin-1-yl)phenyl]amino}pyrazine-2-carboxamide] | ≤ 10 |
| C[C@@H]1[C@H](NC(=O)c2ccc3c(cnn3C)c2)CCCN1c1cnc(C(N)=O)c(Nc2ccc(N3CCN(C)CC3)cc2)n1 [Example D-234, N-[(2R,3R)-1-(5-carbamoyl-6-{[4-(4-methylpiperazin-1-yl)phenyl]amino}pyrazin-2-yl)-2-methylpiperidin-3-yl]-1-methyl-1H-indazole-5-carboxamide] | ≤ 10 |
| C[C@@H]1[C@H](NC(=O)c2ccc(C3(O)CC3)cc2)CCCN1c1cnc(C(N)=O)c(Nc2cnn(C)c2)n1 [Example D-235, 5-[(2R,3R)-3-[4-(1-hydroxycyclopropyl)benzamido]-2-methylpiperidin-1-yl]-3-[(1-methyl-1H-pyrazol-4-yl)amino]pyrazine-2-carboxamide] | ≤ 10 |
| C[C@H]1CC[C@@H](NC(=O)c2ccc(C(C)(C)O)cc2)CN1c1cnc(C(N)=O)c(Nc2cnn(C)c2)n1 [Example D-236, 5-[(2S,5R)-5-[4-(2-hydroxypropan-2-yl)benzamido]-2-methylpiperidin-1-yl]-3-[(1-methyl-1H-pyrazol-4-yl)amino]pyrazine-2-carboxamide] | ≤ 10 |
| C[C@@H]1[C@H](NC(=O)c2ccc3scnc3c2)CCCN1c1cnc(C(N)=O)c(Nc2cnn(C)c2)n1 [Example D-237, N-[(2R,3R)-1-{5-carbamoyl-6-[(1-methyl-1H-pyrazol-4-yl)amino]pyrazin-2-yl}-2-methylpiperidin-3-yl]-1,3-benzothiazole-5-carboxamide] | ≤ 10 |
| Cc1nc2cc(C(=O)N[C@@H]3CCCN(c4cnc(C(N)=O)c(Nc5cnn(C)c5)n4)[C@@H]3C)ccc2o1 [Example D-238, N-[(2R,3R)-1-{5-carbamoyl-6-[(1-methyl-1H-pyrazol-4-yl)amino]pyrazin-2-yl}-2-methylpiperidin-3-yl]-2-methyl-1,3-benzoxazole-5-carboxamide] | ≤ 10 |
| C[C@@H]1[C@H](NC(=O)c2cnc(C(C)(C)C)s2)CCCN1c1cnc(C(N)=O)c(Nc2cnn(C)c2)n1 [Example D-239, 5-[(2R,3R)-3-(2-tert-butyl-1,3-thiazole-5-amido)-2-methylpiperidin-1-yl]-3-[(1-methyl-1H-pyrazol-4-yl)amino]pyrazine-2-carboxamide] | ≤ 10 |
| C[C@@H]1[C@H](NC(=O)c2ccc(C(O)(C(F)(F)F)C(F)(F)F)cc2)CCCN1c1cnc(C(N)=O)c(Nc2cnn(C)c2)n1 [Example D-240, 5-[(2R,3R)-3-[4-(1,1,1,3,3,3-hexafluoro-2-hydroxypropan-2-yl)benzamido]-2-methylpiperidin-1-yl]-3-[(1-methyl-1H-pyrazol-4-yl)amino]pyrazine-2-carboxamide] | ≤ 10 |
| C[C@@H]1[C@H](NC(=O)c2ccc(SC(F)(F)F)cc2)CCCN1c1cnc(C(N)=O)c(Nc2cnn(C)c2)n1 [Example D-241, 3-[(1-methyl-1H-pyrazol-4-yl)amino]-5-[(2R,3R)-2-methyl-3-{4-[(trifluoromethyl)sulfanyl]benzamido}piperidin-1-yl]pyrazine-2-carboxamide] | ≤ 10 |
| Cc1nc2cc(C(=O)N[C@@H]3CCCN(c4cnc(C(N)=O)c(Nc5cnn(C)c5)n4)[C@@H]3C)ccc2s1 [Example D-242, N-[(2R,3R)-1-{5-carbamoyl-6-[(1-methyl-1H-pyrazol-4-yl)amino]pyrazin-2-yl}-2-methylpiperidin-3-yl]-2-methyl-1,3-benzothiazole-5-carboxamide] | ≤ 10 |
